Values quoted from earlier work in US20230111568A1, “SOLID DISPERSIONS OF RIFAXIMIN FOR THE TREATMENT OF OVERT HEPATIC ENCEPHALOPATHY” (Bausch Health Ireland Limited, priority 2020, published 2023).

Test system: complications of cirrhosis

Q: For CO[C@H]1/C=C/O[C@@]2(C)Oc3c(C)c(O)c4c(O)c(c5c(nc6cc(C)ccn65)c4c3C2=O)NC(=O)/C(C)=C\C=C\[C@H](C)[C@H](O)[C@@H](C)[C@@H](O)[C@@H](C)[C@H](OC(C)=O)[C@@H]1C [rifaximin], which “HE recurrences, hospitalizations, adverse events, survival” value (literature (Conf. Proc. IEEE Eng. Med. Biol. Soc. 2013)) is on record?
A: The value was “protect from HE recurrences with decreased HE-related and all-cause hospitalizations without an increased rate of adverse events (AEs) or decreased survival”.

Q: And the “overall rates of infection, antibiotic use and other complications of cirrhosis” value (literature (Conf. Proc. IEEE Eng. Med. Biol. Soc.))?
A: The value was “reduces or maintains the overall rates of infection, antibiotic use, and other complications of cirrhosis such as ascites”.

Q: And the “survival and risk of variceal bleeding, HE, SBP or HRS” value (literature (Journal of Gastroenterology and Hepatology 28(3)))?
A: The value was “independently associated with higher survival and lower risk of developing variceal bleeding, HE, SBP, or HRS”.
